Laboratory results taken from patent US7683031B2, “Short peptides from the ‘2nd loop’ of 7 transmembrane receptor which selectively modulate signal transduction” (Yissum Research Development Company of the Hebrew …, priority 2002, dated 2010).

Columns and labels:
[1] = system: B16 cells; assay: Melanogenesis in B16 cells (melanin, absorbance 405 nm); assay type: cell-based; conditions: tbi formulation; for melanogenesis induction: β3-derived peptides up to 2.5 μM, FIG. 14-18; for EC50: read-out: EC 50 melanogenesis
Procedure: (§1) B16 melanocyet cells were grown in DMEM with 4 mM L-glutamine, supplemented with 10% bovine calf serum in a 37° C. humidified incubator with 5% CO2. The day before the assays, 100 μl of 3×10^4 cells/ml were plated in 96-well microtiter plates overnight.
The day after B16 cells culturing, differential concentrations of stimulator (peptides or αMSH as positive control) were added. The cells were incubated for another 3 days then adding 70 ul of 1N NaOH stopped the reaction. The production of melanin was measured after 24 h as the optical absorbance in […].
“tbi” Formulation: peptides (10 mM final) were dissolved in DMSO (final 8%) and 2M Ammonium Bicarbonate (32% final) were added, the mixture was heated for 40 min then 2M HEPES pH 7.5 60% (final) were added.

[2] = system: β2-adrenergic transfected HEK293 cells; assay: cAMP assay in β2-adrenergic transfected HEK293 cells; assay type: cell-based; conditions: 10 μM peptide, after 1 h, FIG. 11
Procedure: The HEK293 cells were grown in Dulbecco's Modified Eagle's medium (DMEM) with 4 mM L-glutamine, supplemented with 10% horse serum in a 37° C. humidified incubator with 5% CO2. HEK293 cells were transfected using the fuGENE 6 Transfection Reagent. The following amounts of each expression plasmid were used for transfection of each well in a 6-well culture plate: 3 ug of pBK-flag β2AR; 3 ug of pRK5-GRK2 or in combination of 1.5 ug of pBK-flag β2AR and pRK5-GRK2. Cells were harvested after 24 h and transferred into 96-well culture plate (10^5 cells/ml) and a cAMP assay was carried out 48 h post transfection.
(§2) At the day of the assay medium was replaced with serum free medium containing 0.5 mM 3-isobutyl-methylxanthine and the experimental peptides were added for 60 min. The incubation was stopped by replacing the medium with lysis regent supplied in a commercial cAMP kit.
(§3) cAMP levels were determined using cAMP enzymeimmunoassay (EIA) system Biotra Amersham Pharmacia Biotech.

[3] = system: 3T3L1 adipocytes cells; assay: cAMP assay in 3T3L1 adipocytes cells; assay type: cell-based; conditions: FIG. 13
Procedure: 3T3L1 fibroblast were maintained in DMEM with 4 mM L-glutamine, supplemented with 10% calf serum in a 37° C. humidified incubator with 5% CO2. To differentiate fibroblast into adipocytes, cells were grown for 2 days after confluence. The media was then changed to DMEM containing 10% fetal bovine serum; 0.5 mM isobutylmethlxanthine; 4 μg/ml dexamethasone. 3 days later cells were maintained in DMEM containing 10% fetal bovine serum for two weeks, after which the cells were used for cAMP assay.
[…] The incubation was stopped by replacing the medium with lysis regent supplied in a commercial cAMP kit.
as §3

[4] = system: B16 cells; assay: cAMP assay in B16 cells; assay type: cell-based; conditions: 10 μM peptide, after 1 h, FIG. 12
Procedure: as §1, §2, §3

[5] = system: aortic ring; assay: Aortic ring assay (capillary growth ex vivo in collagen matrix gel); assay type: cell-based, rat; conditions: for aortic ring neovascularization in presence of G-protein inhibitor PTX / aortic ring neovascularization: S1P 100 μm, R002L103 20 μm, FIG. 4; for aortic ring neovascularization in presence of G-protein inhibitor PTX: PTX 100 nm/ml; for aortic ring neovascularization: without PTX; for angiogenetic effect, each agent alone: VEGF 12 nm/ml; for angiogenetic effect, each agent alone / neovascularization effect, each agent alone: R002L103 20 μg
Procedure: The following are suitable in vivo or ex vivo modes for angiogenesis: • (1) Aortic ring—where sprouting of newly formed blood vessels is tested whole mounts of aortic rings obtained from rats (see below) • (2) Eye assay—where formation of new blood vessels in the cornea of the animal as a response to an FGF-implanted pellet is determined (see below). • (3) Sponge assay—where infiltration of new blood vessels into a sponge implanted s.c. in an experimental animal is determined (see below) • (4) Regression of pre-formed vasculature in tumors (Benjamin L. E. and Kesshet E. PNAS, 94, 8761-8766, (1997)). • (5) Re-establishment of circulation in dissected vessels in the limbs of experimental animals. Experimental Procedures: 1. Aortic Ring-Assay:
The modification of previously described assay (Nicosia, R. F. and Ottinetti, A. “Growth of microvessels in serum-free matrix culture of rat aorta.” Lab. Invest. 63:115-122. 1990) for capillary growth ex vivo was used. The assay is based on the phenomenon of endothelial cells proliferation from freshly prepared aorta placed into collagen matrix gel, that finally formed new capillary system.
The experiments were carried out on two lines of animals—Sabra and Sprague-Dawley rats, males of 200-250 g-body weight (1-2 month old). Rats were acclimated to vivarium for 4-10 days before their use in study protocol. Each group (from 2 to 4) of the animals was housed in separate cage and fed food and water ad libitum.
Animals were sacrificed by decapitation after ether anesthesia Thoracic aortas were dissected and immediately transferred to a Petri dish with bio-mpm-1. The fibroadipose tissue and small vessels around aorta was carefully removed under a dissecting microscope, 1 mm-long aortic rings were sectioned and extensively (2-3 times) rinsed in bio-mpm-1 containing antibiotics (% cat.) (Nicosia and Ottinetti, 1990).
The collagen matrix gel solution (see above) was added to 24-well plate (0.4 ml to each well) and collagen polymerization was allowed for 15 min at 37° C. The aorta rings were transferred to the collagen gel solution (in order to glue them to the bottom layer of the gel) and then placed to the center of each well. In mice, 3 rings are embedded in the same well. After 15 min incubation of the plates at 37° C. another 0.4 ml of the collagen solution was carefully added on the top of the ring. After the gel is formed 0.4 ml of Serum-Free Endothelial Growth Medium (Rhenium, cat. 17601-030) or bio-mpm-1 (Beit Haemeq cat. 05-060-1) was added to each well. Rings were incubated in 37° c. and 10% CO2. Medium is replaced every 2-3 days.
Compound of the invention were added next day after collagen gel formation in concentration 10-20 uM. compounds were dissolved for 10 mM stock in 100% DMSO. Dilution in 0.1% BSA in PBS to 400 uM stock were done for each AR experiment de novo. The compounds were re-added to AR during each medium changing till well developed capillary system in control or experimental wells.
Fixation was carried out by adding of Buffered Formalin 4% (was obtained from BioLab, cat. 66554) 1.5 ml in each well. An hour later solution was changed to fresh Formalin in order to better fixation (overnight).
We used Crystal Violett (Gencian Violett) 0.02% in Ethanol Abs. as staining solution (1 ml for each well overnight at room temperature). After staining, wells were washed massively with 0.02% Sodium Azide water solution during two or three days till transparent matrix.
Digital pictures were analyzed using ImagePro™ software. The total capillary length of at least 6 AR was measured. Dividing the total capillary length to AD diameter normalized the data.

[6] = system: cornea of mice; assay: Eye assay (neovascularization in the cornea after pellet implantation); assay type: in vivo; conditions: five days after implantation; for blood vessels course of growth: FIG. 10
Procedure: The modification of the assay previously described in “A model of angiogenesis in the mouse cornea” B. M. Kenyon, E. E. Voest, C. C. Chen, E. Flynn J. Folkman and R. J. D'Amato Investigative Ophthalmology & Visual Science, July 1996, Vol. 37, No. 8 1625-1632 was used. The assay is based on the phenomena of formation of new blood vessels in the cornea of mice in response to the implantation in the cornea of a pellet impregnated with FGF.
1. To prepare—Hydron concentrated stock solution (120 mg/ml in ethanol Abs.) • Hydron diluted stock solution (60 mg/ml in ethanol Abs.) • sucralfate stock solution (500 mg/ml in solution S sterile!). • 10 mg peptide.
2. Add 30 μl of solution S to peptide (or 10 μl of solution S and 20 μl of FGF).
3. Add 20 μl of sucralfate stock solution—vortex, speedvac for 5 min (more if needed).
4. Add […] hydron diluted stock solution to sucralfate+FGF+peptide pellet.
Mice were anesthetized with Ketamin/Rompun Solution (for dosage and solutions preparation see standard anesthetic procedure). The eye is topically anesthetized with Localin (Benoxynate HCl 0.4%, Dr. Fisher, Pharmaceutical Labs, P.O.B. 39071, Tel-Aviv 61390). Using a binocular microscope, a central intrastromal linear keratotomy is performed with a surgical blade parallel to the insertion of the lateral rectus muscle. Approximate length of the cut is 0.5-0.6 mm length. The globe is proptosed with a forceps. A lamellar micropocket is dissected toward the temporal limbus using the modified von Graefe knife 2×30 mm. All following procedures must be done without proptosis. A pellet is placed on the corneal surface in the base of the pocket and advanced to the temporal end of the pocket with one arm of the forceps. The distance between pellet and limbal vessel is measured. For FGF containing pellets, the pocket must be extended within 1 mm of the limbus. Antibiotic and antimycotic ointment are applied to the operated eye to prevent infection and additional irritation of the cornea.
Measurements were done at 5th and 7th days after implantation. In the case of high stimulation inspections were done twice a week till full degradation. The maximum vessel length of neovascularization zone, extending from the limbal vessel toward the pellet was measured. The econtiguous circumferential zone of neovascularization was measured as clock hours (where 30° are equals 1 clock hour.)

“R013L103: β3-adrenergic Loop 2 derived peptide (GPLRYGALVT)” was tested, and the melanogenesis induction [1] was “failed as melanogenesis inducers”, the “cAMP production comparing to the control level” value (shortened to “cAMP production comparing”) [2] was “did not affect” and the “level of cAMP increase” value ([3]; after 120 min of incubation) was 18 fold. For the same molecule, the “cAMP production comparing” value [4] was “did not affect”.

In the case of `CCCCCCCCCCCCC/C=C/[C@@H](O)[C@@H](N)COP(=O)(O)O` [S1P, sphingosine-1-phosphate, reference compound], the “aortic ring neovascularization in presence of G-protein inhibitor PTX” value [5] is reported as “completely blocked” and the aortic ring neovascularization [5] is reported as “caused neovascularization”.

VEGF was tested, and the “angiogenetic effect, each agent alone” value ([5]; FIG. 6) was “hardly any angiogenetic effect”, the “neovascularization in the eye in response to implantation of a pellet” value ([6]; FIG. 9) was “able to induce neovascularization” and the “blood vessels course of growth” value [6] was “more coiled”.

In the case of “R013L102: β3-adrenergic Loop 2 derived peptide (GLRYGALVTK)”, the melanogenesis induction [1] is reported as “failed as melanogenesis inducers” and the “level of cAMP increase” value ([3]; after 120 min of incubation) is reported as “did not affect”.

In the case of “GLLRRHS [K024H107, MC1 receptor Loop 2 derived-modified peptide]”, the EC50 [1] is reported as 2000 nM and the melanogenesis induction [1] is reported as “very efficient in inducing melanogenesis”.

With “R013L101: β3-adrenergic Loop 2 derived peptide (GNPLRYGALVT)” the melanogenesis induction [1] was “failed as melanogenesis inducers”, the “cAMP production comparing” value [2] was 140% and the “level of cAMP increase” value ([3]; after 60 min of incubation) was 18 fold. The “cAMP production comparing” value [4] was 900%.

In the case of “R002L103: peptide based on sequence SEQ ID NO:3 of the 2nd loop of EDG3 (FIG. 1A) (MRPYDANKR)”, the “angiogenesis in aortic rings” value ([5]; 10 μm and 20 μm R002L103, degree at least equal to that of S1P 100 nm, FIG. 3) is reported as “increase angiogenesis in a dose dependent manner”, the capillary length ([5]; 20 μm, FIG. 2) is reported as “decreased” and the “neovascularization effect, each agent alone” value (shortened to “neovascularization effect”) ([5]; FGF 10 ng/ml, FIG. 8) is reported as “no effect”. The “neovascularization, combination with FGF” value ([5]; R002L103 20 μg + FGF 10 ng/ml, FIG. 8) was “very significant neovascularization”, the “neovascularization, combination with SCF” value ([5]; R002L103 20 μg + SCF 30 nm/ml, FIG. 7) was “marked synergism and significant neovascularization” and the “neovascularization, combination with VEGF” value ([5]; R002L103 20 μg + VEGF 12 nm/ml, FIG. 6) was “marked and significant neovascularization”. The “aortic ring neovascularization in presence of G-protein inhibitor PTX” value [5] was “completely blocked”, the aortic ring neovascularization [5] was “caused neovascularization” and the “neovascularization effect” value ([5]; SCF 30 nm/ml, FIG. 7) was “no neovascularization effect”. For the same molecule, the “angiogenetic effect, each agent alone” value ([5]; FIG. 6) was “hardly any angiogenetic effect”, the capillary length ([5]; from control to 10 μm, FIG. 2) was “increased” and the capillary thickness ([5]; various concentrations of R002L103, FIG. 2) was “directly correlated to the concentration”. For the same molecule, the “neovascularization in the eye in response to implantation of a pellet” value ([6]; FIG. 9) was “marked neovascularization”, the “number of blood vessels compared to VEGF” value ([6]; FIG. 9) was “larger number of blood vessels” and the “blood vessels course of growth” value [6] was “relatively straight”.

With “FGF: pro-angiogenetic compound; bFGF, human recombinant, in materials” the “neovascularization effect” value ([5]; FGF 10 ng/ml, FIG. 8) was “no effect”.

For “LGLLRRHSI [K024H124, MC1 receptor Loop 2 derived-modified peptide]”, the EC50 [1] was 150 nM and the melanogenesis induction [1] was “very efficient in inducing melanogenesis”.

For SCF: another pro-angiogenetic compound, the “neovascularization effect” value ([5]; SCF 30 nm/ml, FIG. 7) was “no neovascularization effect”.
